Converted amounts (≈) assume the structure as drawn. Like-named read-outs stand apart in the source and are kept apart here. Where only a bound is given, the exact number is not on record here.

This is an account of results in EP2712863B1, “Novel inhibitors of bacterial biofilms and related methods” (Sequoia Sciences, Inc., priority 2012, dated 2014).

One data set relates to P. aeruginosa. The data set can be described thus: Biofilm growth assay (spreading biofilm on semi-solid agar). It is filed as cell-based. Details: P. aeruginosa (n=10): unit not given here. The note with it: for IC85: Pseudomonas aeruginosa.
A further data set concerns E. coli. The description is as above. It is filed as cell-based. On the set-up: E. coli (n=10): unit: ug/mL. Conditions: for IC85: Escherichia coli. The gist of the method:
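Spreading (swarming) biofilm on semi-solid agar: E. coli on LB with 0.6% agar and 0.5% glucose; P. aeruginosa on M8 agar with 0.2% glucose, 100 µM CaCl2, 1 mM MgSO4, 0.5% Casamino acids. Compound in medium; 5 µL overnight culture spotted centrally, 37°C overnight. Value: concentration (µg/ml) giving ≥85% reduction in spread area versus negative control.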

A further data set in a line: Evaluation of salts. It is filed as physicochemical. The protocol: Evaluation of Compound 62 (Table 4) salt formation was performed. […] As stated herein, the invention also includes compounds and their salts. Evaluation of Compound 64 (Table 4) salt formation was performed. HCl (mono and bis), p-TSA (bis), BSA (bis), MSA (bis), H2SO4 (mono), and H3PO4 (mono) provided salts with crystallinity. […] As stated herein, the invention also includes compounds and their salts.

Another data set deals with Burkholderia cepacia. The experiment in a line: Biofilm growth assay, multiple isolates. Conditions: Table 6; inhibitory concentration in the biofilm growth assay; n = number of isolates tested. In kind it is cell-based. The protocol:
(§1) The biofilm growth assay was carried out to measure swarming or biofilm spreading on semi-solid agar media in round plates (for example, 100 × 15 mm), also referred to as Petri dishes. For E. coli, the plates contained LB medium with 0.6% agar and 0.5% glucose. P. aeruginosa plates were made with M8 agar supplemented with 0.2% glucose, 100 µM CaCl2, 1 mM MgSO4, and 0.5% Casamino acids. The agar plates of this assay consisted of 0.4% to 0.7% agar (Bacto or Noble agar), although other media may also be used as described in the literature and known to those skilled in the art. Test compounds at the desired concentration were added to the cooled, autoclaved media. Portions of the media were then poured into the plates (20 mL/plate), and the plates allowed to dry at room temperature for approximately 3 to 4 hours. Alternatively, however, plates may be dried in a laminar flow hood for approximately fifteen to twenty minutes. Overnight cultures were grown in a 37°C shaker in LB (E. coli) or TSB (P. aeruginosa). Plates were inoculated by placing 5 µL of the appropriate overnight culture in the centers of the plates. The plates then were incubated overnight at 37°C. The area of the zone of spreading bacteria was then measured and replicates are averaged. Percent inhibition was calculated as 100 × (area without compound - area with compound)/(area without compound). An active compound was considered that which reduces the area of the spreading biofilm compared to negative controls by greater than or equal to 85%. The values shown in Table 1 are the concentrations of compounds (µg/ml) tested in the biofilm growth assay that reduce the area of the spreading biofilm compared to negative controls by greater than or equal to 85% unless noted differently in Table 1. A > ("greater than" symbol) as used in Table 1 is well understood to those skilled in the art as an indication that the listed concentration was not effective at this concentration.
(§2) Table 6, below, lists the inhibitory concentrations of select compounds and antibiotics in the biofilm growth assay against various gram-negative bacterial biofilms. "N" means the number of isolates of bacteria tested. The biofilm growth assay procedure detailed in Example I, above, was followed. Burkholderia cepacia used media consisting of M9 salts, 100 µM CaCl2, 1 mM MgS04, and 0.7% citrate in 0.4% Noble agar. Salmonella spp. used media consisting of Nutrient Broth with 0.5% glucose in 0.5% Noble agar.

The subject of the next data set is Salmonella spp. The data set can be described thus: Biofilm growth assay, multiple isolates. It is filed as cell-based. The note with it: Table 6; inhibitory concentration in the biofilm growth assay; n = number of isolates tested. As to the method: as §1, §2
A short description of data set [1]: Bioavailability in mice (serum level after oral or IP administration). In kind it is in vivo. The note with it: orally or via IP injection at approximately 20 mg/kg to 50 mg/kg; 30 minutes or 1 hour after administration. The protocol:
The bioavailabilities of certain compounds were examined in mice. Administration of the compounds was performed orally and by intraperitoneal (IP) injection using a vehicle as known to those skilled in the art. Many vehicles can be used to examine bioavailability. Prior to administration, each vehicle was optimized based on compound solubility according to the formulation research conducted by Uckun et al. (Arznelmittel-Forschung (Drug Research) 2007; 57(4):218-226). […] The concentration of PEG400 is modulated depending upon solubility of the compounds and the amount of aqueous phase added (0.02 M citrate and 0.9% NaCl).

Another data set concerns Pseudomonas syringae. The data set can be described thus: Biofilm growth assay, plant pathogens. In kind it is cell-based. Conditions: 0.5% Noble agar, 30°C, approximately 24 to 48 hours.
Another data set concerns Xanthomonas campestris. The data set can be described thus: Biofilm growth assay, plant pathogens. In kind it is cell-based. Conditions: 0.5% Noble agar, 30°C, approximately 24 to 48 hours.
For data set [2], the system named is Pectobacterium atrosepticum. The data set can be described thus: Biofilm growth assay, plant pathogens. It is filed as cell-based. The note with it: 0.5% Noble agar, 30°C, approximately 24 to 48 hours.
For a further data set, the system named is P. aeruginosa biofilm. The data set can be described thus: Biofilm growth assay with antibiotic disks (synergy). It is filed as cell-based. The note with it: 0.125 µg/ml in the agar with colistin 10 µg disks. The protocol: INHIBITION OF THE GROWTH OF PREFORMED BIOFILMS. The Biofilm Growth Assay as described in Example VII was performed in round plates with the compounds of the invention in agar on half of the plate and antibiotic disks placed onto the agar containing the compounds of the invention.
The Biofilm Growth Assay was performed as described in Example VIII. 2 to 4 antibiotic disks were placed onto the agar containing a compound of the invention in a line parallel to the line that separates the two agars in one round plate. Appropriate negative and positive control plates were performed as known to those skilled in the art.

Where [3] appears, read: Table 4, concentration that reduces the area of the spreading biofilm by >= 85%, read-out: P. aeruginosa.
Where [4] appears, read: Table 4, concentration that reduces the area of the spreading biofilm by >= 85%, read-out: E. coli.
Where [5] appears, read: Table 2, concentration that reduces the area of the spreading biofilm by >= 85%.
Where [6] appears, read: Table 6, inhibitory concentration in the biofilm growth assay, n = number of isolates tested.

For the molecule `CC1(C)CC[C@]2(C(N)=O)CC[C@]3(C)C(=CCC4[C@@]5(C)Cc6c(n[nH]c6N)C(C)(C)C5CC[C@]43C)C2C1` (stereo partly drawn) [Compound 62, (4aS,6aS,6bR,13aR)-12-Amino-2,2,6a,6b,9,9,13a-heptamethyl-2,3,4,4a,5,6,6a,6b,7,8,8a,9,11,13,13a,13b,14,15b-octadecahydro-1H-chryseno[1,2-f]indazole-4a-carboxamide], the IC85 with P. aeruginosa (setting [3]) and in the data set on E. coli (setting [4]) was 1 µg/mL (≈ 2.03 µM) each time. Besides, the “physical properties compared to freebase” value in “Evaluation of salts” (p-toluenesulfonic acid (mono) and H3PO4 (bis) salts) was “most desirable physical properties”.
In the case of `CC1(C)CC[C@]2(C(=O)O)CC[C@]3(C)C(=CCC4[C@@]5(C)Cc6c(n[nH]c6N)C(C)(C)C5CC[C@]43C)C2C1` (stereo in doubt) [Compound 1, (4aS,6aS,6bR,13aR)-12-Amino-2,2,6a,6b,9,9,13a-heptamethyl-2,3,4,4a,5,6,6a,6b,7,8,8a,9,11,13,13a,13b,14,15b-octadecahydro-1H-chryseno[1,2-f]indazole-4a-carboxylic acid], in the data set with P. aeruginosa (0.5 µg/ml in the agar, overnight incubation at 37°C), the “growth of the spreading P. aeruginosa biofilm (Figure 1)” value is “prevented the growth of the spreading P. aeruginosa biofilm”. The molecule also came in with an optimal working concentration in the data set on P. aeruginosa (Figure 2 legend) of 0.5 µg/mL. For the same molecule, the IC85 with P. aeruginosa (Table 1, concentration that reduces the area of the spreading biofilm vs negative controls by >= 85%, > means not effective at this concentration, read-out: P. aeruginosa) is 0.5 µg/mL (≈ 1.01 µM); with E. coli (Table 1, concentration that reduces the area of the spreading biofilm vs negative controls by >= 85%, > means not effective at this concentration, read-out: E. coli), 1 µg/mL (≈ 2.03 µM). Moreover, the “P. aeruginosa” value in the data set on P. aeruginosa (setting [5]) was determined as 0.5 µg/mL. In the data set on P. aeruginosa (setting [6]), the “P. aeruginosa (n=10)” value is 1. For the same molecule, the “E. coli” value with E. coli (setting [5]) was determined as 1 µg/mL. In the data set on E. coli (setting [6]), the “E. coli (n=10)” value stood at 1. Also, the inhibitory concentration in the data set with Burkholderia cepacia was 0.25. Also, the “inhibitory concentration in biofilm growth assay” value in the data set on Salmonella spp. was 1. Also, the “concentration in the serum of mice” value in data set [1] was above 5000 ng/mL. In addition, the results for the “concentration found to inhibit the spreading biofilms” value (in the data set on Pseudomonas syringae; in the data set with Xanthomonas campestris; in [2]) were 0.03 µg/mL, 0.5 µg/mL and 0.06 µg/mL, respectively. The “combination with colistin at preventing the growth of P. aeruginosa biofilms (Figure 2)” value in the data set with P. aeruginosa biofilm is “synergistic”.
Take `CN(C)C[C@]12CCC(C)(C)CC1C1=CCC3[C@@]4(C)Cc5c(n[nH]c5N)C(C)(C)C4CC[C@@]3(C)[C@]1(C)CC2` (stereo partly drawn) [Compound 64, (4aS,6aS,6bR,13aR)-4a-((Dimethylamino)methyl)-2,2,6a,6b,9,9,13a-heptamethyl-2,3,4,4a,5,6,6a,6b,7,8,8a,9,11,13,13a,13b,14,15b-octadecahydro-1H-chryseno[1,2-f]indazol-12-amine]: the IC85 in the data set with P. aeruginosa (setting [3]) was determined as 0.5 µg/mL (≈ 0.987 µM); in the data set with E. coli (setting [4]), 1 µg/mL (≈ 1.97 µM). Further, the “concentration in the serum of mice” value in data set [1] is above 5000 ng/mL. In addition, the “aqueous solubility compared to freebase” value in “Evaluation of salts” (Bis-MSA and mono-H3PO4 salts) is recorded as “increased aqueous solubility”.
For the molecule `CC1(C)CC[C@]2(c3cc(O)[nH]n3)CC[C@]3(C)C(=CCC4[C@@]5(C)Cc6c(n[nH]c6N)C(C)(C)C5CC[C@]43C)C2C1` (stereo partly drawn) [Compound 68, 3-((4aS,6aS,6bR,13aR)-12-Amino-2,2,6a,6b,9,9,13a-heptamethyl-2,3,4,4a,5,6,6a,6b,7,8,8a,9,11,13,13a,13b,14,15b-octadecahydro-1H-chryseno[1,2-f]indazol-4a-yl)-1H-pyrazol-5-ol], the IC85 in the data set with P. aeruginosa (read-out: P. aeruginosa (µg/ml)) and in the data set on E. coli (read-out: E. coli (µg/ml)) was 0.5 µg/mL (≈ 0.94 µM) each time. Further, the “concentration in the serum of mice” value in data set [1] was above 5000 ng/mL.
